Experimental data: patent US20170144969A1, “ANT[…], METHOD FOR PRODUCTION AND USES THEREOF” (priority 2014, published 2017)
Several values for one entry are separate records, joined by “and”; a condition that tells them apart may be missing. Equal values may be shown once. Read-outs that look alike come from different tables or passages of the source.

How the values were obtained:
MRSA (ATCC 33591) = test: Minimum Inhibitory Concentration, micro-dilution broth; format: cell-based, methicillin-resistant S. aureus; conditions: 24 h, 37° C.
[1] = system: vancomycin resistant Enterococcus faecium (VRE) (ATCC 51559); test: as above; format: cell-based; conditions: 24 h, 37° C.
E. coli (MTCC 443) = test: as above; format: cell-based; conditions: 24 h, 37° C.
[2] = Antibacterial efficacy (MIC) after incubation in 50% human plasma; conditions: for MIC / activity: up to 24 h incubation in 50% human plasma
human Red Blood Cells = test: Haemolytic activity; conditions: human RBCs, 1 h at 37° C.
[3] = system: Klebsiella pneumoniae (ATCC 700603); test: Minimum Inhibitory Concentration, micro-dilution broth; format: cell-based; conditions: 24 h, 37° C.
S. aureus biofilms = test: Bacterial biofilm disruption (pre-formed biofilm); format: cell-based; conditions: for reduction of cell viability in pre-existing biofilms: 24 h
E. coli = test: Resistance study, serial passage at MIC/2; format: cell-based; conditions: 30 passages
[4] = system: Enterococcus faecium (ATCC 19634); test: Minimum Inhibitory Concentration, micro-dilution broth; format: cell-based
[5] = system: RAW (macrophage) cell line; test: Cytotoxicity, MTT assay
S. aureus = test: Resistance study, serial passage at MIC/2; format: cell-based; conditions: 20 passages
[6] = system: stationary-phase S. aureus; test: Time-kill kinetics against stationary phase bacteria; format: cell-based; conditions: within 1 h of exposure, 50 μg/mL
HeLa cell line = test: Cytotoxicity, MTT assay
S. aureus (MTCC 737) = test: Minimum Inhibitory Concentration, micro-dilution broth; format: cell-based, Staphylococcus aureus; conditions: 24 h, 37° C.
[7] = system: Ebola virus (strain ME718); format: cell-based
[8] = system: Ebola virus (strain ME718); format: cell-based; remark: listed apart in the source
Ebola virus [9] = format: cell-based
Ebola virus [10] = format: cell-based; remark: listed apart in the source
Ebola virus [11] = format: cell-based; remark: listed apart in the source
[12] = 24 h, 37° C., read-out: Minimum Inhibitory Concentration E. faceium

CCCCCCCCCCCC(=O)N(CCCNC(=O)[C@@H](N)Cc1ccccc1)CCCNC(=O)[C@@H](N)Cc1ccccc1.O=C(O)C(F)(F)F.O=C(O)C(F)(F)F [Compound 2, N,N-bis-[{3-(^LPhe)amino}propyl]dodecanamide bis(trifluoroacetate)]
Minimum Inhibitory Concentration MRSA (MRSA (ATCC 33591)): 4 µM
MIC [1]: 2.7 µM
MIC (E. coli (MTCC 443)): 12 µM
MIC ([2]; after 2 h incubation with 50% plasma): 10.7 µM
MIC ([2]; after 4 h incubation with 50% plasma): 22 µM
MIC ([2]; before incubation with 50% human plasma): 5.4 µM
MIC / activity [2]: remained same
HC50 (human Red Blood Cells; Table 3): 205
Minimum Inhibitory Concentration K. pneumonie [3]: 9.7 µM

CC(=O)NC[C@H]1CN(c2ccc(N3CCOCC3)c(F)c2)C(=O)O1 [linezolid, reference compound]
reduction of cell viability in pre-existing biofilms (S. aureus biofilms; 64×MIC): none of the antibiotics showed significant reduction

colistin [reference compound]
fold increase in the MIC (E. coli): ~250 fold

CCCCCCCCCCCC(=O)N(CCCNC(=O)[C@H](N)Cc1ccccc1)CCCNC(=O)[C@H](N)Cc1ccccc1 [Compound 6, N,N-bis-[{3-(^DPhe)amino}propyl]dodecanamide bis(trifluoroacetate)]
MIC [1]: 2.9 µM
MIC (E. coli (MTCC 443); Escherichia coli, MTCC443): 12 µM
stability in plasma ([2]; human plasma): stable in plasma
MIC / activity [2]: did not show any loss of activity
MIC [4, 12]: 3.3 µM
MIC ([4]; Enterococcus faecium, ATCC19634, 24 h, read-out: Minimum Inhibitory Concentration E. faceium, 24 h, 37° C.): 2 to 5 µM

CCCCCCCCCCCCCC(=O)N(CCCNC(=O)[C@H](N)CCCCN)CCCNC(=O)[C@H](N)CCCCN.O=C(O)C(F)(F)F.O=C(O)C(F)(F)F [Compound 16, N,N-bis-[{3-(^DLys)amino}propyl]tetradecanamide bis(trifluoroacetate)]
EC50 (50% cells viability) ([5]; MTT): > 70 mg/L
toxicity ([5]; at its MIC): did not show any toxicity
fold increase in the MIC (E. coli): no change in the MIC
fold increase in the MIC (S. aureus): no change in the MIC
reductions in cell viability [6]: more than 3 Log CFU/mL
EC50 (50% cells viability) (HeLa cell line; MTT): > 70 mg/L
toxicity (HeLa cell line; at its MIC): did not show any toxicity
MIC (S. aureus (MTCC 737)): 5.7 µM
MIC [1]: 2.8 µM
MIC (E. coli (MTCC 443)): 5.4 µM
Ct value Ave [7]: 34.3 and 32.9
Drug - no drug Ct change [7]: 7.02 and 5.64
Ct value Ave [8]: 33.65 and 35.29
Drug - no drug Ct change [8]: 3.76 and 5.40
rank of Ct value among 20 compounds (Ebola virus [9]): one of the top two Ct values
rank of Ct value among 20 compounds (Ebola virus [10]): one of the top two Ct values
reduction of cell viability in pre-existing biofilms (S. aureus biofilms; 4×MIC): 5 Log (CFU/mL)
biofilm eradication, confocal microscopy (S. aureus biofilms; 10×MIC): significant biofilm eradication
pre-formed biofilm mass, crystal violet staining (S. aureus biofilms; 10×MIC): enormous reduction in pre-formed biofilm mass
reduction of cell viability in pre-existing biofilms (S. aureus biofilms; 10×MIC): 6 Log (CFU/mL)
reduction of cell viability in pre-existing biofilms (S. aureus biofilms; at its MIC concentration): more than 4 Log CFU/mL
Ct value, replicate wells 1-3 (Ebola virus [11]): 25.96 and 27.13 and 26.42 and 26.03 and 24.81 and 25.73 and 26.99 and 26.76 and 26.30 and 26.31 and 26.49 and 26.53 and 26.04 and 26.63 and 16.70 and 18.76 and 16.93 and 24.42 and 24.33 and 24.32 and 21.29 and 20.72 and 23.10 and 19.95 and 20.87 and 20.22 and 17.82 and 20.49 and 19.45
amount of viral genome present (Ebola virus [11]): reduced the amount of viral genome present

CN[C@H](CC(C)C)C(=O)N[C@H]1C(=O)N[C@@H](CC(N)=O)C(=O)N[C@H]2C(=O)N[C@H]3C(=O)N[C@H](C(=O)N[C@H](C(=O)O)c4cc(O)cc(O)c4-c4cc3ccc4O)[C@H](O)c3ccc(c(Cl)c3)Oc3cc2cc(c3O[C@@H]2O[C@H](CO)[C@@H](O)[C@H](O)[C@H]2O[C@H]2C[C@](C)(N)[C@H](O)[C@H](C)O2)Oc2ccc(cc2Cl)[C@H]1O [vancomycin, reference compound]
reduction of cell viability in pre-existing biofilms (S. aureus biofilms; 64×MIC): none of the antibiotics showed significant reduction

CC[C@H]1OC(=O)[C@H](C)[C@@H](O[C@H]2C[C@@](C)(OC)[C@@H](O)[C@H](C)O2)[C@H](C)[C@@H](O[C@@H]2O[C@H](C)C[C@H](N(C)C)[C@H]2O)[C@](C)(O)C[C@@H](C)C(=O)[C@H](C)[C@@H](O)[C@]1(C)O [erythromycin, reference compound]
reduction of cell viability in pre-existing biofilms (S. aureus biofilms; 64×MIC): none of the antibiotics showed significant reduction

CCn1cc(C(=O)O)c(=O)c2cc(F)c(N3CCNCC3)cc21 [norfloxacin, reference compound]
fold increase in the MIC (S. aureus): around 800 fold
reduction of cell viability in pre-existing biofilms (S. aureus biofilms; 64×MIC): none of the antibiotics showed significant reduction

CCCCCCCCCCCC(=O)N(CCCNC(=O)[C@@H]1CCCN1)CCCNC(=O)[C@@H]1CCCN1.O=C(O)C(F)(F)F.O=C(O)C(F)(F)F [Compound 57, N,N-bis-[{3-(^LPro)amido}propyl]dodecanamide bis(trifluoroacetate)]
Minimum Inhibitory Concentration MRSA (MRSA (ATCC 33591)): 130 µM
MIC (S. aureus (MTCC 737)): 60 µM
MIC [1]: 112 µM
MIC (E. coli (MTCC 443)): 90 µM
HC50 (human Red Blood Cells; Table 6): 918 µM
MIC [4, 12]: 78 µM
Minimum Inhibitory Concentration K. pneumonie [3]: >340 µM
